Experimental data taken from ChEMBL document CHEMBL5244269, “Improving metabolic stability and removing aldehyde oxidase liability in a 5-azaquinazoline series of IRAK4 inhibitors” (Bioorg Med Chem, 2020).

Key:
Assay type in all cases: functional
OCI-Ly10 [1] = experiment: Growth inhibition of human OCILY10 cells at 0.17 uM incubated for 3 days in presence of 0.17 uM acalabrutinib relative to control; conditions: OCI-Ly10, 72 h, time 3 day, read-out: GI
OCI-Ly10 [2] = experiment: Growth inhibition of human OCILY10 cells at 10 uM incubated for 3 days in presence of 0.33 uM acalabrutinib relative to control; conditions: OCI-Ly10, 72 h, time 3 day, read-out: GI
SUD4 [3] = experiment: Growth inhibition of human SU-DHL-4 cells at 0.17 uM incubated for 3 days in presence of 0.033 uM acalabrutinib relative to control; conditions: SU-DHL-4, 72 h, time 3 day, read-out: GI
SUD4 [4] = experiment: Growth inhibition of human SU-DHL-4 cells at 10 uM incubated for 3 days in presence of 0.33 uM acalabrutinib relative to control; conditions: SU-DHL-4, 72 h, time 3 day, read-out: GI
SUD4 [5] = experiment: Growth inhibition of human SU-DHL-4 cells at 10 uM incubated for 3 days in presence of 0.003 uM acalabrutinib relative to control; conditions: SU-DHL-4, 72 h, time 3 day, read-out: GI
SUD4 [6] = experiment: Growth inhibition of human SU-DHL-4 cells at 3.3 uM incubated for 3 days in presence of 0.17 uM acalabrutinib relative to control; conditions: SU-DHL-4, 72 h, time 3 day, read-out: GI
OCI-Ly10 [7] = experiment: Growth inhibition of human OCILY10 cells at 3.3 uM incubated for 3 days in presence of 0.017 uM acalabrutinib relative to control; conditions: OCI-Ly10, 72 h, time 3 day, read-out: GI
SUD4 [8] = experiment: Growth inhibition of human SU-DHL-4 cells at 1.7 uM incubated for 3 days in presence of 0.033 uM acalabrutinib relative to control; conditions: SU-DHL-4, 72 h, time 3 day, read-out: GI
OCI-Ly10 [9] = experiment: Growth inhibition of human OCILY10 cells at 0.33 uM incubated for 3 days in presence of 0.33 uM acalabrutinib relative to control; conditions: OCI-Ly10, 72 h, time 3 day, read-out: GI
OCI-Ly10 [10] = experiment: Growth inhibition of human OCILY10 cells at 10 uM incubated for 3 days in presence of 0.003 uM acalabrutinib relative to control; conditions: OCI-Ly10, 72 h, time 3 day, read-out: GI
SUD4 [11] = experiment: Growth inhibition of human SU-DHL-4 cells at 0.33 uM incubated for 3 days in presence of 0.17 uM acalabrutinib relative to control; conditions: SU-DHL-4, 72 h, time 3 day, read-out: GI
OCI-Ly10 [12] = experiment: Growth inhibition of human OCILY10 cells at 0.17 uM incubated for 3 days in presence of 0.33 uM acalabrutinib relative to control; conditions: OCI-Ly10, 72 h, time 3 day, read-out: GI
SUD4 [13] = experiment: Growth inhibition of human SU-DHL-4 cells at 10 uM incubated for 3 days in presence of 0.033 uM acalabrutinib relative to control; conditions: SU-DHL-4, 72 h, time 3 day, read-out: GI
SUD4 [14] = experiment: Growth inhibition of human SU-DHL-4 cells at 1.7 uM incubated for 3 days in presence of 0.003 uM acalabrutinib relative to control; conditions: SU-DHL-4, 72 h, time 3 day, read-out: GI
SUD4 [15] = experiment: Growth inhibition of human SU-DHL-4 cells at 1.7 uM incubated for 3 days in presence of 0.33 uM acalabrutinib relative to control; conditions: SU-DHL-4, 72 h, time 3 day, read-out: GI
SUD4 [16] = experiment: Growth inhibition of human SU-DHL-4 cells at 0.17 uM incubated for 3 days in presence of 0.33 uM acalabrutinib relative to control; conditions: SU-DHL-4, 72 h, time 3 day, read-out: GI
OCI-Ly10 [17] = experiment: Growth inhibition of human OCILY10 cells at 1.7 uM incubated for 3 days in presence of 0.17 uM acalabrutinib relative to control; conditions: OCI-Ly10, 72 h, time 3 day, read-out: GI
SUD4 [18] = experiment: Growth inhibition of human SU-DHL-4 cells at 0.33 uM incubated for 3 days in presence of 0.33 uM acalabrutinib relative to control; conditions: SU-DHL-4, 72 h, time 3 day, read-out: GI
OCI-Ly10 [19] = experiment: Growth inhibition of human OCILY10 cells at 0.33 uM incubated for 3 days in presence of 0.033 uM acalabrutinib relative to control; conditions: OCI-Ly10, 72 h, time 3 day, read-out: GI
SUD4 [20] = experiment: Growth inhibition of human SU-DHL-4 cells at 10 uM incubated for 3 days in presence of 0.17 uM acalabrutinib relative to control; conditions: SU-DHL-4, 72 h, time 3 day, read-out: GI
OCI-Ly10 [21] = experiment: Growth inhibition of human OCILY10 cells at 0.17 uM incubated for 3 days in presence of 0.033 uM acalabrutinib relative to control; conditions: OCI-Ly10, 72 h, time 3 day, read-out: GI
OCI-Ly10 [22] = experiment: Growth inhibition of human OCILY10 cells at 10 uM incubated for 3 days in presence of 0.017 uM acalabrutinib relative to control; conditions: OCI-Ly10, 72 h, time 3 day, read-out: GI
OCI-Ly10 [23] = experiment: Growth inhibition of human OCILY10 cells at 1.7 uM incubated for 3 days in presence of 0.33 uM acalabrutinib relative to control; conditions: OCI-Ly10, 72 h, time 3 day, read-out: GI
OCI-Ly10 [24] = experiment: Growth inhibition of human OCILY10 cells at 3.3 uM incubated for 3 days in presence of 0.003 uM acalabrutinib relative to control; conditions: OCI-Ly10, 72 h, time 3 day, read-out: GI
SUD4 [25] = experiment: Growth inhibition of human SU-DHL-4 cells at 0.17 uM incubated for 3 days in presence of 0.17 uM acalabrutinib relative to control; conditions: SU-DHL-4, 72 h, time 3 day, read-out: GI
SUD4 [26] = experiment: Growth inhibition of human SU-DHL-4 cells at 0.17 uM incubated for 3 days in presence of 0.003 uM acalabrutinib relative to control; conditions: SU-DHL-4, 72 h, time 3 day, read-out: GI
SUD4 [27] = experiment: Growth inhibition of human SU-DHL-4 cells at 3.3 uM incubated for 3 days in presence of 0.33 uM acalabrutinib relative to control; conditions: SU-DHL-4, 72 h, time 3 day, read-out: GI
SUD4 [28] = experiment: Growth inhibition of human SU-DHL-4 cells at 1.7 uM incubated for 3 days in presence of 0.17 uM acalabrutinib relative to control; conditions: SU-DHL-4, 72 h, time 3 day, read-out: GI
OCI-Ly10 [29] = experiment: Growth inhibition of human OCILY10 cells at 1.7 uM incubated for 3 days in presence of 0.003 uM acalabrutinib relative to control; conditions: OCI-Ly10, 72 h, time 3 day, read-out: GI
SUD4 [30] = experiment: Growth inhibition of human SU-DHL-4 cells at 10 uM incubated for 3 days in presence of 0.017 uM acalabrutinib relative to control; conditions: SU-DHL-4, 72 h, time 3 day, read-out: GI
OCI-Ly10 [31] = experiment: Growth inhibition of human OCILY10 cells at 1.7 uM incubated for 3 days in presence of 0.017 uM acalabrutinib relative to control; conditions: OCI-Ly10, 72 h, time 3 day, read-out: GI
SUD4 [32] = experiment: Growth inhibition of human SU-DHL-4 cells at 3.3 uM incubated for 3 days in presence of 0.033 uM acalabrutinib relative to control; conditions: SU-DHL-4, 72 h, time 3 day, read-out: GI
SUD4 [33] = experiment: Growth inhibition of human SU-DHL-4 cells at 3.3 uM incubated for 3 days in presence of 0.003 uM acalabrutinib relative to control; conditions: SU-DHL-4, 72 h, time 3 day, read-out: GI
SUD4 [34] = experiment: Growth inhibition of human SU-DHL-4 cells at 3.3 uM incubated for 3 days in presence of 0.017 uM acalabrutinib relative to control; conditions: SU-DHL-4, 72 h, time 3 day, read-out: GI
SUD4 [35] = experiment: Growth inhibition of human SU-DHL-4 cells at 0.33 uM incubated for 3 days in presence of 0.033 uM acalabrutinib relative to control; conditions: SU-DHL-4, 72 h, time 3 day, read-out: GI
SUD4 [36] = experiment: Growth inhibition of human SU-DHL-4 cells at 0.17 uM incubated for 3 days in presence of 0.017 uM acalabrutinib relative to control; conditions: SU-DHL-4, 72 h, time 3 day, read-out: GI
OCI-Ly10 [37] = experiment: Growth inhibition of human OCILY10 cells at 0.33 uM incubated for 3 days in presence of 0.17 uM acalabrutinib relative to control; conditions: OCI-Ly10, 72 h, time 3 day, read-out: GI
OCI-Ly10 [38] = experiment: Growth inhibition of human OCILY10 cells at 3.3 uM incubated for 3 days in presence of 0.17 uM acalabrutinib relative to control; conditions: OCI-Ly10, 72 h, time 3 day, read-out: GI
OCI-Ly10 [39] = experiment: Growth inhibition of human OCILY10 cells at 3.3 uM incubated for 3 days in presence of 0.33 uM acalabrutinib relative to control; conditions: OCI-Ly10, 72 h, time 3 day, read-out: GI
OCI-Ly10 [40] = experiment: Growth inhibition of human OCILY10 cells at 10 uM incubated for 3 days in presence of 0.17 uM acalabrutinib relative to control; conditions: OCI-Ly10, 72 h, time 3 day, read-out: GI
OCI-Ly10 [41] = experiment: Growth inhibition of human OCILY10 cells at 1.7 uM incubated for 3 days in presence of 0.033 uM acalabrutinib relative to control; conditions: OCI-Ly10, 72 h, time 3 day, read-out: GI

In the case of `CC[C@@H]1[C@H](F)C(=O)N[C@@H]1COc1nccc2cc(C(N)=O)c(OC)cc12` [ZIMLOVISERTIB], the inhibition of growth at 0.17 µM (OCI-Ly10 [1]) was 171%, the inhibition of growth at 10 µM (OCI-Ly10 [2]) was 177% and the inhibition of growth at 0.17 µM (SUD4 [3]) was 1%. It also gave an inhibition of growth at 10 µM (SUD4 [4]) of 7%, an inhibition of growth at 10 µM (SUD4 [5]) of 2% and an inhibition of growth at 3.3 µM (SUD4 [6]) of 3%. The inhibition of growth at 3.3 µM (OCI-Ly10 [7]) was 95%, the inhibition of growth at 1.7 µM (SUD4 [8]) was 1% and the inhibition of growth at 0.33 µM (OCI-Ly10 [9]) was 172%. It also gave an inhibition of growth at 10 µM (OCI-Ly10 [10]) of 80%, an inhibition of growth at 0.33 µM (SUD4 [11]) of 2% and an inhibition of growth at 0.17 µM (OCI-Ly10 [12]) of 171%. The inhibition of growth at 10 µM (SUD4 [13]) was 2%, the inhibition of growth at 1.7 µM (SUD4 [14]) was 2% and the inhibition of growth at 1.7 µM (SUD4 [15]) was 6%. It also gave an inhibition of growth at 0.17 µM (SUD4 [16]) of 6%, an inhibition of growth at 1.7 µM (OCI-Ly10 [17]) of 170% and an inhibition of growth at 0.33 µM (SUD4 [18]) of 6%. It also gave an inhibition of growth at 0.33 µM (OCI-Ly10 [19]) of 142%, an inhibition of growth at 10 µM (SUD4 [20]) of 3% and an inhibition of growth at 0.17 µM (OCI-Ly10 [21]) of 142%. For the same compound, the inhibition of growth at 10 µM (OCI-Ly10 [22]) was 140%, the inhibition of growth at 1.7 µM (OCI-Ly10 [23]) was 170% and the inhibition of growth at 3.3 µM (OCI-Ly10 [24]) was 36%. The inhibition of growth at 0.17 µM (SUD4 [25]) was 2%, the inhibition of growth at 0.17 µM (SUD4 [26]) was 1% and the inhibition of growth at 3.3 µM (SUD4 [27]) was 6%. It also gave an inhibition of growth at 1.7 µM (SUD4 [28]) of 3%, an inhibition of growth at 1.7 µM (OCI-Ly10 [29]) of 26% and an inhibition of growth at 10 µM (SUD4 [30]) of 3%. The inhibition of growth at 1.7 µM (OCI-Ly10 [31]) was 89%, the inhibition of growth at 3.3 µM (SUD4 [32]) was 2% and the inhibition of growth at 3.3 µM (SUD4 [33]) was 2%. It also gave an inhibition of growth at 3.3 µM (SUD4 [34]) of 2%, an inhibition of growth at 0.33 µM (SUD4 [35]) of 1% and an inhibition of growth at 0.17 µM (SUD4 [36]) of 1%. It also gave an inhibition of growth at 0.33 µM (OCI-Ly10 [37]) of 171%, an inhibition of growth at 3.3 µM (OCI-Ly10 [38]) of 170% and an inhibition of growth at 3.3 µM (OCI-Ly10 [39]) of 170%. For the same compound, the inhibition of growth at 10 µM (OCI-Ly10 [40]) was 178% and the inhibition of growth at 1.7 µM (OCI-Ly10 [41]) was 139%.
